# Measured values from ChEMBL document CHEMBL1158514, “Molecular design of small organic molecules based on structural information for a conformationally constrained peptide that binds to G-CSF receptor” (Bioorg Med Chem Lett, 2010).
# Biological target: T1, Granulocyte colony-stimulating factor receptor (Homo sapiens, UniProt Q99062)
# T1 sequence (Q99062 whole entry): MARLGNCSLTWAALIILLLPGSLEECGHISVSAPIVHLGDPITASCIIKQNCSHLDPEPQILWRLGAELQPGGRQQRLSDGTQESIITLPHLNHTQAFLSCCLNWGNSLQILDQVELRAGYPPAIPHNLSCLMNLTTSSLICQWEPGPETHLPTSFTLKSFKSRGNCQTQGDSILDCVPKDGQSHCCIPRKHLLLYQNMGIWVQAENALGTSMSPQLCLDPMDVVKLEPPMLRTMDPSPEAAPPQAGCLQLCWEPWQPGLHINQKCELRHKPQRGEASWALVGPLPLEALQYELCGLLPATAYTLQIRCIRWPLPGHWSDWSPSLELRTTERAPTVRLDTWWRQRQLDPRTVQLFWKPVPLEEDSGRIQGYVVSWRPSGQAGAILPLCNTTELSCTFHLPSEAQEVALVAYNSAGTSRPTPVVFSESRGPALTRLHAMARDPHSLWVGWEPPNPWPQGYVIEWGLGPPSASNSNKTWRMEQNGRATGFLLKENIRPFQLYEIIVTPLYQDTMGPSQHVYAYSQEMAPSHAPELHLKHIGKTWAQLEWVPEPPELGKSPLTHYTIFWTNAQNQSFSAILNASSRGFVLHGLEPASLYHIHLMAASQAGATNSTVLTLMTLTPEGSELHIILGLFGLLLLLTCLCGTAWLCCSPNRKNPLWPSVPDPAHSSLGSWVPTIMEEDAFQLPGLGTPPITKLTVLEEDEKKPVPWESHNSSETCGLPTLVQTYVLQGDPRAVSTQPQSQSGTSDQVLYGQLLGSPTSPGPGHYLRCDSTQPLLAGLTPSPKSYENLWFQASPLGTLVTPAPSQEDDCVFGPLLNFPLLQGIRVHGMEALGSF
# Test: Binding affinity to granulocyte colony stimulating factor receptor by SPR biosensor technique; call rule not given here
Kd,Kd (read-out: Kd) [µM],Structure (SMILES)
Not Active,–,CC(C)CCOc1cc(OCCCN)cc(-c2ccc(CCC(N)=O)c(CCC(=O)O)c2)c1
–,47,CC(C)CCOc1cc(CN(CCC(=O)O)c2cccc(CCC(N)=O)c2)cc(OCCCN)c1
Not Active,–,CC(C)CCOc1cc(CN(CCC(N)=O)c2cccc(CCC(=O)O)c2)cc(OCCCN)c1
–,20,CC(C)CCOc1cc(OCCCN)cc(-c2ccc(CCC(=O)O)c(CCC(N)=O)c2)c1
